Laboratory results published in publication PMC9144278, “Inclusion of a Phytomedicinal Flavonoid in Biocompatible Surface-Modified Chylomicron Mimic Nanovesicles with Improved Oral Bioavailability and Virucidal Activity: Molecular Modeling and Pharmacodynamic Studies” (Pharmaceutics, 2022).
In brackets after ≈: the same amount, converted by molar mass. Read-outs that look alike come from different tables or passages of the source.

Legend:
[1] = tested on: myeloperoxidase (MPO) and NF-κB; set-up: species or system C57BL/6 mice; details: mouse, in vivo
Vero E6 cells = experiment: MTT cytotoxicity assay (TC50); format: cell-based, African green monkey; details: 24 h
Procedure: Dulbecco’s Modified Eagle’s Medium (DMEM) was utilized for sample dilutions. The stock solutions of the investigated formulations were employed as solutions in 10% DMSO in double-distilled H2O. Cells were harvested in 96-well plates (100-µL/well at a density of 3 × 10^5 cells/mL) and were incubated for 24 h at 37 °C in 5% CO2. Afterwards, various amounts of the investigated compounds were added to the cells, and each experiment was performed in triplicate. After an extra 24 h, cell monolayers were dislodged from the supernatant and then rinsed 3 times with sterile phosphate buffer saline (PBS). MTT solution (20.0 µL of 5.00 mg/mL stock solution) was added into each well, and the cells were incubated for 4 h at 37 °C, followed by aspiration of the medium. […] The absorbances of the formazan solutions were assessed at λmax 540 vs. the 620 nm reference wavelength, using a multiwell plate reader. The cytotoxicity percentages related to the untreated cells were computed via GraphPad Prism software (version 7.01) using the following formula: %Cytotoxicity = (absorbance of cells without treatment − absorbance of cells with treatment) × 100 (absorbance of cells without treatment) […]

[2] = Particle size, zeta potential and PDI by Zetasizer (dynamic laser scattering); format: physicochemical
Procedure: The MH-charged PCMs (0.10 mL) were admixed with distilled water (10.0 mL) in a glass culture tube and vortexed for 5 min. The particle sizes and their scattering surrounding the mean (including those of the pure-MH dispersion, shown in Supplementary Materials Figure S1) were determined at 25 °C using dynamic laser scattering with a 45 mm focus lens and a beam length of 2.4 mm. The same instrument was utilized for the ZP measurements of the electrophoretic mobility of the particles in the electric field.

[3] = Ex vivo drug gut-permeation study, noneverted gut sac technique; format: in vitro ADME, male Wistar rats; details: rat intestine
Procedure: A comparative ex vivo intestinal transport study between the drug suspension and the optimized formula was conducted using the noneverted gut sac technique. […] The small intestine from each animal was then excised and sliced into sections 5 cm in length. The sections were then rinsed using normal saline. Krebs–Ringer solution (~2 mL) was utilized to irrigate the intestinal segments, followed by sac formation by closing the lower portion of the segments using a thread. Each sac was filled with a sample of the pure MH suspension (estimated to comprise 5.0 mg of MH) or with the optimized F9 formulation (estimated to comprise 5.0 mg of MH). Finally, each sac was allocated in an organ path packed with 50 mL of Krebs–Ringer solution after the lower portion of each sac was tightly sealed with a thread. […] CO2 mixture. […] To maintain a constant total volume, the organ path was compensated by the addition of equal volumes of fresh Krebs–Ringer solution after each sample for analysis had been withdrawn. The amounts of MH that had permeated through the intestinal segment were determined via HPLC using a Hitachi LaChrom Elite instrument equipped with a Model Series L-2000 organizer box, L-2300 column oven, L-2130 pump with built in degasser, Rheodyne 7725i injector with a […], and a L-2455 photodiode array detector (PAD). […]

MERS-CoV = format: in vivo, C57BL/6 mice; details: oral 10 mg/kg once daily
lung tissue = tested on: lung tissue; set-up: species or system C57BL/6 mice; details: mouse, in vivo
[4] = tested on: MERS-related coronavirus isolate NRCE-HKU270; experiment: microbe, parasite or virus in culture; format: cell-based, MERS-CoV
[5] = Pharmacokinetic study after oral administration; details: rat
[6] = tested on: IFN-γ, TNF-α, IL-6, IL-4, SOD in BALF; set-up: species or system C57BL/6 mice; details: mouse, in vivo, po, 10 mg/kg
[7] = cited from earlier work
[8] = male, Wistar albino, in vivo, po, 20 mg/kg

In the case of `O=c1c(O)c(-c2ccc(O)cc2O)oc2cc(O)cc(O)c12` [MH, 2′,3,4′,5,7-pentahydroxyflavone], the “effect on MPO and NF-κB protein expression in lung” value [1] is reported as “markedly suppressed the protein expression compared with the infected group”, the “concentration for 50% cell cytotoxicity (TC50)” value (Vero E6 cells) is reported as 2.53 µg/mL and the “particle sizes of MH dispersion” value ([2]; MH dispersion in PBS used for oral dosing) is reported as 672.3 ± 32.1. The PDI polydispersity index ([2]; mean ± SD (n = 3)) was 0.576 ± 0.1, the Papp at 90 min ([3]; male, Wistar, read-out: apparent permeability coefficient (APC) (converted)) was 2.53 ×10⁻⁶ cm/s and the “flux (Jmax)” value ([3]; after 90 min) was 0.37 ± 0.018 μg/cm^2/min. For the same molecule, the “% plaque prohibition in lung homogenate” value (MERS-CoV; after 3 d postinfection) was 27.1%, the “% plaque prohibition in lung homogenate” value (MERS-CoV; after 6 d postinfection) was 44.8% and the “effect on lung pathological alterations” value (lung tissue) was “marked suppression in all of those alterations”. The “selectivity index (SI = CC50/EC50)” value [4] was 19.4, the EC50 ([4]; Middle East respiratory syndrome-related coronavirus, Vero C1008, read-out: EC50 antiviral activity) was 0.13 µg/mL (≈ 0.43 µM) and the inhibition at 0.125 µg/mL ([4]; Middle East respiratory syndrome-related coronavirus, Vero C1008, read-out: inhibition efficacy (viral plaques)) was 48%. For the same molecule, the AUC(0-inf) [5, 8] was 77000 ± 22000 ng·h/mL, the Tmax [5, 8] was 2 h and the AUC(0-t) ([5]; male, Wistar albino, in vivo, po, 20 mg/kg, AUC0–24, rat, 20 mg/kg MH, n = 6) was 56100 ± 16200 ng·h/mL. For the same molecule, the Cmax ([5]; male, Wistar albino, in vivo, po, 20 mg/kg, Cmax, 20 mg/kg MH, n = 6) was 4820 ± 840 ng/mL, the “AUC0–24” value ([5]; oral, 20 mg/kg MH, n = 6, listed as Morin Hydrate Dispersion) was 56000 ± 16000 ng·h/mL and the “IFN-γ level in BALF” value [6] was 82.7 ± 7.51 pg/mg protein. The “IL-4 level in BALF” value [6] was 23.5 ± 2.10 pg/mg protein, the “IL-6 level in BALF” value [6] was 112.9 ± 14.6 pg/mg protein and the “SOD level in BALF” value [6] was 2.2 ± 0.35 U/mg protein. For the same molecule, the “TNF-α level in BALF” value [6] was 57.4 ± 6.2 pg/mg protein.

In the case of `NC(=O)N1c2ccccc2CC(=O)c2ccccc21` [oxycarbazepine], the pKa [7] is given as 10.7.
